Measured values as given in patent publication US12168086B2, “Hemostatic devices and methods of use” (priority 2016, dated 2024).

How the values were obtained:
myofibroblast formation = conditions: Ajmal et al. (2003); cited from earlier work
[1] = PBS pH 7.4 without TXA, with TXA 0.05 mg/mL or 5 mg/mL, over 25 hours
blood clotting = conditions: in vitro, 1.2 mg of TXA alone
[2] = time to reach plasma concentrations; conditions: in vivo

SMILES: O=S(=O)([O-])CCS.[Na+] [MESNA, sodium 2-mercaptoethane sulfonate]
- myofibroblast formation (myofibroblast formation): diminish myofibroblast formation

SMILES: CO[C@H]1/C=C/O[C@@]2(C)Oc3c(C)c(O)c4c(O)c(c(/C=N/N5CCN(C)CC5)c(O)c4c3C2=O)NC(=O)/C(C)=C\C=C\[C@H](C)[C@H](O)[C@@H](C)[C@@H](O)[C@@H](C)[C@H](OC(C)=O)[C@@H]1C [rifampin]
- elution rate from p22-27.5 polymer [1]: not affected by the presence of TXA

SMILES: NC[C@H]1CC[C@H](C(=O)O)CC1 [tranexamic acid]
- time to induce blood clotting (blood clotting): about 19 minutes
- time to reach plasma concentrations [2]: 5 to 15 min
